In patent US20040029965A1, “Formulations for reducing or eliminating toxicity of enviromental hormones containing ursodeoxycholic acid” (priority 2000, published 2004):

Tests used:
Format in all cases: in vivo
[1] = tested on: Ovariectomized female B6C3F1 mice; test: Uterus weight changes by bisphenol A (uterine proliferation); conditions: UDCA 2 mg/day alone, s.c. for 4 days
Experimental: Ovariectomized female B6C3F1 mice of 5 weeks old, the average weight of which was 18 to 22 g and had been bred in CRJ, were purchased. They were acclimated under the constant breeding conditions, i.e. the constant temperature of 24±1° C., the humidity of 60±10% and the light and darkness cycle of 12 hours, for one week and then, utilized in the experiment. The animals were supplied with solid feed purchased from Purina and supplied with water ad libitum. After acclimation, test materials dissolved in corn oil were subcutaneously injected once a day for 4 days. The test materials used herein, stock solutions of bisphenol A and UDCA were prepared using ethanol. 2 mg of bisphenol A dissolved in 0.2 ml of corn oil was administered to the mice alone or in combination with UDCA once a day. The administration dose of UDCA was 0.2 or 2.0 mg, and corn oil was administered to the solvent control.
The results are expressed as Mean±Standard Deviation values. ANOVA was performed to evaluate the mean distribution of administered groups. In case that the significance was recognized in ANOVA, the Student's t-test was carried out in the levels of p<0.05 and p<0.01.

C57B1/6J mice [2] = test: Effect of UDCA on death (death rate, death time) of mice by a single subcutaneous injection of TCDD
Experimental: (§1) Male C57B1/6J mice of 5 weeks old having the average weight of 18-22 g which had been bred in CRJ (Charles River in Japan) were purchased and used in this example as experimental animals. Those mice were acclimated under the constant breeding condition, i.e. the temperature of 24±1° C., the humidity of 60±10% and the light and darkness cycle of 12 hours, for one week and thereafter, utilized in the experiment.
(§2) The Experimental animals were supplied with Purina powdered feed (purchased from Hae Eun Trade) and supplied with water ad libitum. All the animals were weighed twice a week during experimentation.
(§3) 2,3,7,8-tetrachlorodibenzo-p-dioxin (TCDD) dissolved in toluene (purity of 95% or more as a result of gas chromatography analysis), manufactured by Chem. Services Inc. in USA, was volatilized with nitrogen to obtain powder. The obtained powder was dissolved in a mixed solvent containing acetone and corn oil with a volume ratio of 1:6. The resulting solution each containing 110, 27.5 and 6.9 μg/kg of TCDD was subcutaneously injected to mice at a volume of 5 ml per body weight. […] The mice were supplied with the feed from 10 days before (pre-administration) to 60 days after administration of TCDD (post-administration).
(§4) The results are expressed as Mean±Standard Deviation values. For statistical analysis of the body weight, feed and water uptake, biochemical findings, hematological findings and the weight of organ in an acute toxicity test, verification was performed by one way analysis of variance (ANOVA) in case of equal distribution. In case significance was recognized in ANOVA, the Student's t-test was performed in the levels of p<0.05 and p<0.01.

C57B1/6J mice [3] = test: Changes in body weight of mice after a single subcutaneous injection of TCDD; conditions: for Weight (body weight): at sacrifice
Experimental: as §1, §2, §3, §4

[4] = TCDD 6.9 μg/kg + UDCA 0.125 wt %
[5] = TCDD 6.9 μg/kg + UDCA 0.25 wt %
[6] = TCDD 27.5 μg/kg + UDCA 0.125 wt %
[7] = TCDD 27.5 μg/kg + UDCA 0.25 wt %
[8] = TCDD 27.5 μg/kg + UDCA 0.5 wt %
[9] = TCDD 110.0 μg/kg + UDCA 0.125 wt %
[10] = TCDD 110.0 μg/kg + UDCA 0.25 wt %
[11] = TCDD 110.0 μg/kg + UDCA 0.5 wt %

In the case of `C[C@H](CCC(=O)O)[C@H]1CC[C@H]2[C@@H]3[C@@H](O)C[C@@H]4C[C@H](O)CC[C@]4(C)[C@H]3CC[C@]12C` [UDCA, 3α, 7β-dihydroxy-5β-cholanoic acid], the “Mean weight of uterus ± SD” value [1] is reported as 6.96 ± 1.34, the Death rate (C57B1/6J mice [2]; [4]) is reported as 0% and the “No. of dead mice/No. of administered mice” value (C57B1/6J mice [2]; [4]) is reported as 0/10. The Death rate (C57B1/6J mice [2]; [5]) was 0%, the “No. of dead mice/No. of administered mice” value (C57B1/6J mice [2]; [5]) was 0/10 and the Death rate (C57B1/6J mice [2]; TCDD 6.9 μg/kg + UDCA 0.5 wt %) was 0%. For the same compound, the “No. of dead mice/No. of administered mice” value (C57B1/6J mice [2]; TCDD 6.9 μg/kg + UDCA 0.5 wt %) was 0/10, the “No. of dead mice/No. of administered mice” value (C57B1/6J mice [2]; [6]) was 0/10 and the “No. of dead mice/No. of administered mice” value (C57B1/6J mice [2]; [7]) was 0/10. For the same compound, the “No. of dead mice/No. of administered mice” value (C57B1/6J mice [2]; [8]) was 0/10, the “Death time (Mean ± SD)” value (C57B1/6J mice [2]; [9]) was 33 ± 4 days and the “No. of dead mice/No. of administered mice” value (C57B1/6J mice [2]; [9]) was 10/10. The Death rate (C57B1/6J mice [2]; [10]) was 90%, the “Death time (Mean ± SD)” value (C57B1/6J mice [2]; [10]) was 34 ± 5 days and the “No. of dead mice/No. of administered mice” value (C57B1/6J mice [2]; [10]) was 9/10. The Death rate (C57B1/6J mice [2]; [11]) was 40%, the “Death time (Mean ± SD)” value (C57B1/6J mice [2]; [11]) was 51 ± 8 days and the “No. of dead mice/No. of administered mice” value (C57B1/6J mice [2]; [11]) was 4/10. It also gave a body weight (C57B1/6J mice [3]; TCDD 6.9 μg/kg + UDCA 0.125 wt %, 0 day) of 19.77 ± 0.21, a body weight (C57B1/6J mice [3]; TCDD 6.9 μg/kg + UDCA 0.125 wt %, 12 days) of 21.95 ± 0.28 and a body weight (C57B1/6J mice [3]; TCDD 6.9 μg/kg + UDCA 0.125 wt %, 22 days) of 23.16 ± 0.32. For the same compound, the body weight (C57B1/6J mice [3]; TCDD 6.9 μg/kg + UDCA 0.125 wt %, 32 days) was 24.15 ± 0.38, the body weight (C57B1/6J mice [3]; TCDD 6.9 μg/kg + UDCA 0.125 wt %, 39 days) was 25.21 ± 0.46 and the body weight (C57B1/6J mice [3]; TCDD 6.9 μg/kg + UDCA 0.125 wt %, 50 days) was 26.62 ± 0.56. The body weight (C57B1/6J mice [3]; TCDD 6.9 μg/kg + UDCA 0.125 wt %, 59 days) was 27.06 ± 0.60, the “Weight (body weight)” value (C57B1/6J mice [3]; [4]) was 24.12 ± 1.83 g and the body weight (C57B1/6J mice [3]; TCDD 6.9 μg/kg + UDCA 0.25 wt %, 0 day) was 20.13 ± 0.34. It also gave a body weight (C57B1/6J mice [3]; TCDD 6.9 μg/kg + UDCA 0.25 wt %, 12 days) of 22.18 ± 0.38, a body weight (C57B1/6J mice [3]; TCDD 6.9 μg/kg + UDCA 0.25 wt %, 22 days) of 23.81 ± 0.43 and a body weight (C57B1/6J mice [3]; TCDD 6.9 μg/kg + UDCA 0.25 wt %, 32 days) of 24.21 ± 0.47. It also gave a body weight (C57B1/6J mice [3]; TCDD 6.9 μg/kg + UDCA 0.25 wt %, 39 days) of 25.69 ± 0.45, a body weight (C57B1/6J mice [3]; TCDD 6.9 μg/kg + UDCA 0.25 wt %, 50 days) of 27.15 ± 0.46 and a body weight (C57B1/6J mice [3]; TCDD 6.9 μg/kg + UDCA 0.25 wt %, 59 days) of 27.74 ± 0.48. The “Weight (body weight)” value (C57B1/6J mice [3]; [5]) was 24.72 ± 1.39 g, the body weight (C57B1/6J mice [3]; TCDD 6.9 μg/kg + UDCA 0.5 wt %, 0 day) was 19.97 ± 0.28 and the body weight (C57B1/6J mice [3]; TCDD 6.9 μg/kg + UDCA 0.5 wt %, 12 days) was 21.81 ± 0.32. For the same compound, the body weight (C57B1/6J mice [3]; TCDD 6.9 μg/kg + UDCA 0.5 wt %, 22 days) was 23.26 ± 0.37, the body weight (C57B1/6J mice [3]; TCDD 6.9 μg/kg + UDCA 0.5 wt %, 32 days) was 24.28 ± 0.50 and the body weight (C57B1/6J mice [3]; TCDD 6.9 μg/kg + UDCA 0.5 wt %, 39 days) was 25.22 ± 0.49. For the same compound, the body weight (C57B1/6J mice [3]; TCDD 6.9 μg/kg + UDCA 0.5 wt %, 50 days) was 27.15 ± 0.49, the body weight (C57B1/6J mice [3]; TCDD 6.9 μg/kg + UDCA 0.5 wt %, 59 days) was 27.06 ± 0.56 and the “Weight (body weight)” value (C57B1/6J mice [3]; TCDD 6.9 μg/kg + UDCA 0.5 wt %) was 24.19 ± 1.38 g. It also gave a body weight (C57B1/6J mice [3]; TCDD 27.5 μg/kg + UDCA 0.125 wt %, 0 day) of 19.80 ± 0.25, a body weight (C57B1/6J mice [3]; TCDD 27.5 μg/kg + UDCA 0.125 wt %, 12 days) of 22.04 ± 0.26 and a body weight (C57B1/6J mice [3]; TCDD 27.5 μg/kg + UDCA 0.125 wt %, 22 days) of 23.59 ± 0.28. It also gave a body weight (C57B1/6J mice [3]; TCDD 27.5 μg/kg + UDCA 0.125 wt %, 32 days) of 24.17 ± 0.33, a body weight (C57B1/6J mice [3]; TCDD 27.5 μg/kg + UDCA 0.125 wt %, 39 days) of 25.48 ± 0.36 and a body weight (C57B1/6J mice [3]; TCDD 27.5 μg/kg + UDCA 0.125 wt %, 50 days) of 26.63 ± 0.28. For the same compound, the body weight (C57B1/6J mice [3]; TCDD 27.5 μg/kg + UDCA 0.125 wt %, 59 days) was 26.93 ± 0.34, the “Weight (body weight)” value (C57B1/6J mice [3]; [6]) was 24.58 ± 1.07 g and the body weight (C57B1/6J mice [3]; TCDD 27.5 μg/kg + UDCA 0.25 wt %, 0 day) was 19.96 ± 0.30. For the same compound, the body weight (C57B1/6J mice [3]; TCDD 27.5 μg/kg + UDCA 0.25 wt %, 12 days) was 22.22 ± 0.29, the body weight (C57B1/6J mice [3]; TCDD 27.5 μg/kg + UDCA 0.25 wt %, 22 days) was 23.56 ± 0.37 and the body weight (C57B1/6J mice [3]; TCDD 27.5 μg/kg + UDCA 0.25 wt %, 32 days) was 24.34 ± 0.38. The body weight (C57B1/6J mice [3]; TCDD 27.5 μg/kg + UDCA 0.25 wt %, 39 days) was 25.38 ± 0.37, the body weight (C57B1/6J mice [3]; TCDD 27.5 μg/kg + UDCA 0.25 wt %, 50 days) was 26.94 ± 0.50 and the body weight (C57B1/6J mice [3]; TCDD 27.5 μg/kg + UDCA 0.25 wt %, 59 days) was 27.27 ± 0.51. The “Weight (body weight)” value (C57B1/6J mice [3]; [7]) was 24.62 ± 1.44 g, the body weight (C57B1/6J mice [3]; TCDD 27.5 μg/kg + UDCA 0.5 wt %, 0 day) was 19.08 ± 0.20 and the body weight (C57B1/6J mice [3]; TCDD 27.5 μg/kg + UDCA 0.5 wt %, 12 days) was 21.09 ± 0.32. The body weight (C57B1/6J mice [3]; TCDD 27.5 μg/kg + UDCA 0.5 wt %, 22 days) was 22.52 ± 0.33, the body weight (C57B1/6J mice [3]; TCDD 27.5 μg/kg + UDCA 0.5 wt %, 32 days) was 23.33 ± 0.32 and the body weight (C57B1/6J mice [3]; TCDD 27.5 μg/kg + UDCA 0.5 wt %, 39 days) was 24.07 ± 0.34. For the same compound, the body weight (C57B1/6J mice [3]; TCDD 27.5 μg/kg + UDCA 0.5 wt %, 50 days) was 25.31 ± 0.43, the body weight (C57B1/6J mice [3]; TCDD 27.5 μg/kg + UDCA 0.5 wt %, 59 days) was 24.52 ± 0.42 and the “Weight (body weight)” value (C57B1/6J mice [3]; [8]) was 22.15 ± 1.14 g. For the same compound, the body weight (C57B1/6J mice [3]; TCDD 110.0 μg/kg + UDCA 0.125 wt %, 0 day) was 19.48 ± 0.29 and the body weight (C57B1/6J mice [3]; TCDD 110.0 μg/kg + UDCA 0.125 wt %, 12 days) was 19.40 ± 0.40.
